According to patent publication US10822333B2, “Pyridopyrimidines derivatives compounds” (BIOLAB SANUS FARMACEUTICA LTDA, priority 2014, dated 2020):
Several values for one entry are separate records, joined by “and”; a condition that tells them apart may be missing. Identical values can stand only once.

Key:
Guanylate Cyclase-C = biological target: T1, Guanylate Cyclase-C (Homo sapiens, UniProt P25092); assay: Stimulation of guanylate cyclase-C induced by the toxin STa in T84 cells (cGMP accumulation); assay type: cell-based; conditions: for inhibition at 50 µM: T84, test compound 50 μM vs STa (1 μM) group, read-out: % of inhibition (Compound x STa); for cGMP, pmol/10 min/mg: test compound 50 μM, 10 min pre-incubation, then STa 1 μM for 10 min, T84 cells, mean ± SEM
T1 construct: host or cells: T84 cells
Description: Protocol for the Stimulation of Guanylate Cyclase-C Induced by the Toxin STa in T84 Cells
Cells from the T84 line (ATCC CCL-248) are subculture according to supplier's instructions. Briefly, after washing the culture flask (75 cm^2) using 3 mL of 0.25% Trypsin solution (w/v) and 0.53 mM EDTA solution to remove the traces of serum, the same volume of trypsin is added to each bottle, and cells are observed under a microscope until detachment of the cellular layer (usually 8-10 minutes).
Preparation of assay plates (12-well plates) follows after adding 8 mL of culture medium (DMEM-F12 supplemented with 10% fetal bovine serum and penicillin-streptomycin (50 IU/mL:50 μg/mL) and centrifugation of the cell homogenate at 2000 rpm for 5 minutes (at 25° C.).
With the aid of a 1 mL pipet connected to a vacuum pump, the supernatant is aspirated and the cells resuspended with culture medium (with necessary volume to maintain the ratio of 1:4, i.e. 1 culture flask originates 4 12-well plates). After homogenization of the cells, with an aid of a pipette, it is added 2 mL of the cell suspension to each well of the plate. The growth occurs in an incubator under controlled conditions (37° C., 5% CO2 atmosphere) until confluence of each well (typically 8-10 days).
Initially, the culture medium is aspirated using a 1 mL pipette connected to a vacuum pump and the cells are washed at least 3 times with 0.5 mL of a Dulbecco Phosphate Buffered Saline (DPBS; 37° C.) using a 1 mL pipette attached to one the vacuum pump. In the sequence, 0.5 mL of DPBS is added in the presence and/or absence of 1-metil-3-isobutyl xanthine (1 mM), dimethylsulfoxide (0.1% v/v) and the test compound and incubated for 10 minutes in an oven (37° C., 5% CO2 atmosphere).
After the incubation period, the cells are stimulated with STa toxin (1 μM, 5 μL) and incubated in an incubator (37° C., 5% CO2 atmosphere) for 10 minutes. After the stimulation period, the volume of the supernatant is aspirated using a 1 mL pipette connected to a vacuum pump and the cGMP is extracted by the addition of a hydrochloric acid solution 0.1 M (0.3 mL, using a pipette), pH 4, under constant stirring (speed 4) in a shaker type “rotator” (Lab-line Instruments, model number 4625), for 20 minutes. After the extraction period, the volume of each well is centrifuged (15000 rpm, 5 minutes, 25° C.) and an aliquot of the supernatant (0.3 mL) is quickly stored in a freezer at −20° C. for the subsequent quantification of the content of cGMP by the immunoassay method developed and described by HORTON et al. (1992) [Horton, J. K.; Martin, R. C.; Kalinka, S.; Cushing, A.; Kitcher, J. P.; O'Sullivan, M. J.; Baxendale, P. M., “Enzime immunoassays for the estimation of adenosine 3′,5′ cyclic monophosphate and guanosine 3′,5′ cyclic monophosphate in biological fluids”. J Immunol Methods 1992, 155:31-40].
The protein precipitate or “pellets” are digested directly by the addition of 0.5 mL of a 0.1 M sodium hydroxide solution, under constant agitation in a shaker type “rotator” (speed 7), for 30 minutes. Posteriorly, this protein fraction is used in the tests to determine proteins, employing a method developed by BRADFORD (1976). [M. M. BRADFORD, “A rapid and sensitive method for the quantitation of microgram quantities of protein utilizing the principle of protein-dye binding”. Analytical Biochemistry, 1976, 72:248-254].

[1] = Determination of absolute bioavailability in Beagle dogs (oral vs intravenous, plasma LC-MS/MS); assay type: in vivo; conditions: dog, male Beagle dogs, oral powder in capsules 3 mg/kg vs intravenous bolus 1, 3 and 10 mg/kg
Description: Protocol for Determination of Absolute Bioavailability
The study used male Beagle dogs, aged between 2 to 4 years old, weighing between 8 to 12 kg, and kept in food control and disposal of water ad libitum during the study.
The dogs were shaving in the radial portion of the front paws, performing aseptic on site with the aid of moistened gauze with 70% alcohol.
Entered the 21G catheter (one in each paw in the intravenous administration protocol and a single paw in the oral administration protocol) in order to access the cephalic vein.
The blood samples were collected from animals depending on the established sampling times by taking 1.5 mL of blood using a 3 mL syringe. The samples were transferred to heparinized tube collection.
c) Route of Administration
The administration of the study compounds was made orally and intravenously.
The intravenous administration of the compounds was carried out in bolus, and has through one of the cephalic veins of dogs. Concentrations were administered 1 mg/kg; 3 mg/kg and 10 mg/kg in one, on different days.
The oral administration of the drug was provided as a powder in capsules at the dose of 3 mg/kg, which were all completely ingested by dogs.
For the intravenous administration, the blood samples (1.5 ml) were collected in the following predetermined time intervals: 0, 0.033, 0.083, 0.17, 0.25, 0.33, 0 5; 1; 2; 3; 4; 6; 8; 12 and 24 hours.
For the oral administration, the blood samples (1.5 ml) were collected in the following predetermined time intervals: 0, 0.33, 0.67, 1, 1.5, 2, 3, 4, and 6, 8, 12 and 24 hours.
The compounds tested are II, IV, VI, and XI; described in TABLE 1.
The heparinized tubes collections were placed in a centrifuge and were processed for 10 minutes at 2500 rpm per minute. The plasma was separated and put into other tubes. The plasma was analyzed by Liquid chromatography-tandem mass spectrometry (LC-MS/MS).

T1 sequence (P25092 24-1073): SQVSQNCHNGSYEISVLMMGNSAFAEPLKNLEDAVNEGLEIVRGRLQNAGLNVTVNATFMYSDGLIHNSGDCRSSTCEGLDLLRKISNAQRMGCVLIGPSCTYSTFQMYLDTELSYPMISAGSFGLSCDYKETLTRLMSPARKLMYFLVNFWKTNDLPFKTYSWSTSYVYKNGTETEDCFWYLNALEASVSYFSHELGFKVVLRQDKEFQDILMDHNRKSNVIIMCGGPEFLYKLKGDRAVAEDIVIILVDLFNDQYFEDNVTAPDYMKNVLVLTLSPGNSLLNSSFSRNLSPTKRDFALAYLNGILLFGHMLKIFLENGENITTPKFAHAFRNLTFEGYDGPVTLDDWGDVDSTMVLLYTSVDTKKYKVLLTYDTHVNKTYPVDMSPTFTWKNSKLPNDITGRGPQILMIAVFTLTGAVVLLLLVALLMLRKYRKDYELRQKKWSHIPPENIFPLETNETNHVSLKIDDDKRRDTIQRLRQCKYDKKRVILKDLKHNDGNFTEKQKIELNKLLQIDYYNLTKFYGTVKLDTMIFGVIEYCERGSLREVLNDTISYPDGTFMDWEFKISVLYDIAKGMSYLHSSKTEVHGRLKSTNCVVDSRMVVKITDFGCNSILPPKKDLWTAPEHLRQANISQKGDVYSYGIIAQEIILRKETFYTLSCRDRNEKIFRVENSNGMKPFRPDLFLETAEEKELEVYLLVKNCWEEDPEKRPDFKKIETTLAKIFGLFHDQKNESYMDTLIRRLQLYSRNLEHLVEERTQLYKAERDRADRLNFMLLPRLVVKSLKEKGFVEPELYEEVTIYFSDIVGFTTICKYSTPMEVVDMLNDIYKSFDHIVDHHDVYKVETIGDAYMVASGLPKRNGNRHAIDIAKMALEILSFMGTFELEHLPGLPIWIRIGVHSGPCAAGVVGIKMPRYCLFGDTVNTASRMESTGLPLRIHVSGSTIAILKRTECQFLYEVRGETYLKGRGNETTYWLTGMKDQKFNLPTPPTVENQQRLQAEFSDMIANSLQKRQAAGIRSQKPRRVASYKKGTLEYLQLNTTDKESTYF

Structure (SMILES)	inhibition at 50 µM (Guanylate Cyclase-C; cGMP accumulation in T84 cells) [%]	cGMP, pmol/10 min/mg (Guanylate Cyclase-C)	bioavailability [1] [%]	melting point [°C]	% of inhibition (Compound x STa) (Guanylate Cyclase-C; test compound 50 μM vs STa (1 μM) group, cGMP accumulation in T84 cells)
CCn1c2c(c(=O)n(C)c1=O)C(c1cc(C(F)(F)F)cc(C(F)(F)F)c1)C1=C(N2)c2ccccc2C1=O (stereo not shown) [Compound VI, 5-(3,5-bistrifluoromethylphenyl)-1-ethyl-3-methyl-5,11-dihydro-1H-indeno-[2′,1′:5,6]pyrido[2,3-d]pyrimidine-2,4,6-trione]	~97	22.83 ± 3.30 pmol/10 min/mg	0.82	166	
Cn1c2c(c(=O)n(C)c1=S)C(c1cc(F)cc(C(F)(F)F)c1)C1=C(N2)c2ccccc2C1=O (stereo not shown) [Compound III, 5-(3-fluoro-5-trifluoromethylphenyl)-1,3-dimethyl-5,11-dihydro-1H-indeno-[2′,1′:5,6]pyrido[2,3-d]pyrimidine-2-thioxo-4,6-dione]	~64	201.50 ± 44.93 pmol/10 min/mg		313	
CCn1c2c(c(=O)n(C)c1=O)C(c1cc(F)cc(C(F)(F)F)c1)C1=C(N2)c2ccccc2C1=O (stereo not shown) [Compound IV, 5-(3-fluoro-5-trifluoromethylphenyl)-1-ethyl-3-methyl-5,11-dihydro-1H-indeno-[2′,1′:5,6]pyrido[2,3-d]pyrimidine-2,4,6-trione]	~86	146.80 ± 22.94 pmol/10 min/mg	0.17	177	
Cn1c2c(c(=O)n(C)c1=O)C(c1cccc3c1OCO3)C1=C(N2)c2ccccc2C1=O (stereo not shown) [Compound VII, 5-(1,3-benzodioxol-4-yl)-1,3-dimethyl-5,11-dihydro-1H-indeno-[2′,1′:5,6]pyrido[2,3-d]pyrimidine-2,4,6-trione]	~12	297.30 ± 39.06 pmol/10 min/mg			
Cn1c2c(c(=O)n(C)c1=S)C(c1cc(C(F)(F)F)cc(C(F)(F)F)c1)C1=C(N2)c2ccccc2C1=O (stereo not shown) [Compound V, 5-(3,5-bistrifluoromethylphenyl)-1,3-dimethyl-5,11-dihydro-1H-indeno-[2′,1′:5,6]pyrido[2,3-d]pyrimidine-2-thioxo-4,6-dione]	~62			314	
Cn1c2c(c(=O)n(C)c1=S)C(c1cccc3c1OCO3)C1=C(N2)c2ccccc2C1=O (stereo not shown) [Compound VIII, 5-(1,3-benzodioxol-4-yl)-1,3-dimethyl-5,11-dihydro-1H-indeno-[2′,1′:5,6]pyrido[2,3-d]pyrimidine-2-thioxo-4,6-dione]	~66	350.70 ± 35.80 pmol/10 min/mg		310	
Cn1c2c(c(=O)n(C)c1=S)C(c1ccc3nsnc3c1)C1=C(N2)c2ccccc2C1=O (stereo not shown) [Compound XII, 5-(2,1,3-benzothiadiazol-5-yl)-1,3-dimethyl-5,11-dihydro-1H-indeno-[2′,1′:5,6]pyrido[2,3-d]pyrimidine-2-thioxo-4,6-dione]	~64	201.50 ± 23.51 pmol/10 min/mg		362	
Cn1c2c(c(=O)n(C)c1=O)C(c1csc(C(F)(F)F)c1)C1=C(N2)c2ccccc2C1=O (stereo not shown) [Compound I]	~62	210.70 ± 6.11 pmol/10 min/mg		265	
Cn1c2c(c(=O)n(C)c1=O)C(c1ccc3nsnc3c1)C1=C(N2)c2ccccc2C1=O (stereo not shown) [Compound XI, 5-(2,1,3-benzothiadiazol-5-yl)-1,3-dimethyl-5,11-dihydro-1H-indeno-[2′,1′:5,6]pyrido[2,3-d]pyrimidine-2,4,6-trione]	~70	171.30 ± 31.68 pmol/10 min/mg	0.35		
Cn1c2c(c(=O)n(C)c1=O)C(c1cccc3nsnc13)C1=C(N2)c2ccccc2C1=O (stereo not shown) [Compound X, 5-(2,1,3-benzothiadiazol-4-yl)-1,3-dimethyl-5,11-dihydro-1H-indeno-[2′,1′:5,6]pyrido[2,3-d]pyrimidine-2,4,6-trione]	~36	668.40 ± 75.46 pmol/10 min/mg			
Cn1c2c(c(=O)n(C)c1=O)C(c1cc(C(F)(F)F)cc(C(F)(F)F)c1)C1=C(N2)c2ccccc2C1=O (stereo not shown) [FPIPP, reference compound]	~94	53.53 ± 6.22 pmol/10 min/mg and 74.83 ± 13.26 pmol/10 min/mg and 56.25 ± 13.61 pmol/10 min/mg and 81.00 ± 14.38 pmol/10 min/mg			~86% and ~83% and ~87%
Cn1c2c(c(=O)n(C)c1=O)C(c1ccc3c(c1)OCO3)C1=C(N2)c2ccccc2C1=O (stereo not shown) [Compound IX, 5-(1,3-benzodioxol-5-yl)-1,3-dimethyl-5,11-dihydro-1H-indeno-[2′,1′:5,6]pyrido[2,3-d]pyrimidine-2,4,6-trione]		703.50 ± 43.11 pmol/10 min/mg			
Cn1c2c(c(=O)n(C)c1=S)C(c1csc(C(F)(F)F)c1)C1=C(N2)c2ccccc2C1=O (stereo not shown) [Compound II]	~94	57.50 ± 3.16 pmol/10 min/mg	0.16	178	
